# Test results taken from patent publication US20040259783A1, “Pharmaceutical compositions of marine sponge microciona prolifera” (priority 2001, published 2004).
# Assays:
# [1] = system: rat aortic smooth muscle cells, A-10; assay: Smooth muscle cell migration in vitro assay (scrape injury); assay type: cell-based; details: concentration giving 100% inhibition of smooth muscle cell motility, incubation up to 24 hrs
# Experimental: The following in vitro assays were conducted to illustrate the effect of peptides, carbohydrates and extract (2.7K) on the smooth muscle cell migration. The cells used in the following example were rat aortic smooth muscle cells, A-10. The cells were seeded at 2.5×10^5 cells/well in 6 well plates using Dulbecco's Modified Eagle Medium (Gibco BRL Cat. # 11885-084),10% FBS and 1% Antibiotic Antimycotic (Gibco BRL Cat. # 15240). Confluency of cells after about 8 hrs was between 80˜90%. Cells were injured with the single edge cell scraper (one injury/well) then washed twice with PBS and treated with peptides B-1 (SEQ ID NO:1), B-2 (SEQ ID NO:2 ), B-3 (SEQ ID NO: 3), B-6, (SEQ ID NO: 4), B-9(SEQ ID NO:5), B-10(SEQ ID NO:6) AND B-11(SEQ ID NO: 7) at concentrations ranging from 10 μg/ml ml to 100 μg/ml. Images were taken using a X5 modulation objective (Zeiss, Germany) attached to a Zeiss Axiovert 100 inverted microscope equipped with Hoffman Modulation contrast optical filters (Greenvale, N.Y.).
# The images were taken at zero time and following the incubation of smooth muscle cells with peptide, carbohydrates and extracts for a period of up to 24 hrs (FIGS. 1, 2, 3 and 4).
# EAE mouse model = EAE mouse model (acute EAE induced with MBP and PTX); assay type: in vivo; details: 5 mg/kg daily; for clinical signs of MS symptoms: improvement in mean clinical score and delay in progression to disability; for mean clinical score: day 15, scale of 0 to 5, PBS treated mice 1.7 (B-9 study), 1.5 (B-1 study)
# Experimental: The EAE mouse model is the standard animal model used for testing therapeutic compounds in the treatment of multiple sclerosis (MS). Acute EAE was induced by immunization of 3 months old SJL/J female mice (Jackson Lab.; Bar Harbor, Me.) with the MBP (myelin basic protein) and PTX (pertussis toxin). Each animal received an s.c. injection at tail base of 200 μg MBP in 0.1 ml of CFA and received an i.v. injection of 200 ng of PTX; pertussis toxin was injected again 48 hours later. Mice (4 animals per group) were treated with the peptide B-1 (SEQ ID NO: 1) or peptide B-9 (SEQ ID NO: 5) at a dose of 5 mg/kg daily; injections starting on the day of first immunization. Treatment was stopped at time of sacrifice. Mice were monitored daily from day 7 after immunization for clinical signs of EAE and were scored on a scale of 0 to 5. A score of 0 represented the absence of signs while a score of 5 was given to moribund animals.
# [2] = MAF carbohydrates and MAF 2.7 K extract
Compound,"100% Inhibition of Cell Motility [1, 2]",100% Inhibition of Cell Motility ([1]; MAFp3 peptides),clinical signs of MS symptoms (EAE mouse model),mean clinical score (EAE mouse model)
"CC(=O)N[C@H]1[C@H](O[C@@H]2[C@H](O)[C@H](C)OC(O)[C@H]2O)O[C@H](CO)[C@@H](O)[C@@H]1O (stereo partly shown) [RR-1 disaccharides, GlcNAcβ1-3Fuc]",5˜10 μg/mL,–,–,–
"CC(=O)NC1C(OC2C(O)C(C)OC(O)C2O)OC(CO)C(OC2OC3COC(C)(C(=O)O)OC3C(O)C2O)C1O (stereo not shown) [RR-5 trisaccharides, (4,6-Pyr)Galβ1-4GlcNAcβ1-3Fuc]",25 µg/mL,–,–,–
"CFLTPHGVELHK (artificial peptide derived from Microciona prolifera) [Peptide B-10, 12 amino acid synthetic peptide derived from MAF]",–,100 µg/mL,–,–
"EDQLDAMNLS (artificial peptide derived from Microciona prolifera) [Peptide B-3, 10 amino acid synthetic peptide derived from MAF]",–,50 µg/mL,–,–
"GSGIGDEPTTS (artificial peptide derived from Microciona prolifera) [Peptide B-6, 11 amino acid synthetic peptide derived from MAF]",–,50˜75 μg/ml,–,–
GVSVRRYRNRVRI (listed as Microciona prolifera) [Peptide B-1],–,100 µg/mL,significant attenuation,0.7
NGSIGPRGLPGVRGDRGKRGK (artificial peptide derived from Microciona prolifera) [Peptide B-11],–,75˜100 μg/ml,–,–
"RFVINITTSGSD (artificial peptide derived from Microciona prolifera) [Peptide B-9, 12 amino acid synthetic peptide derived from MAF]",–,20 µg/mL,significant attenuation,0.6
"VGFDPYDYEVNEADG (artificial peptide derived from Microciona prolifera) [Peptide B-2, 15 amino acid synthetic peptide, derived from MAF]",–,50 to 100 µg/mL,–,–
